In brackets after ≈: the same amount, converted by molar mass. Several values for one entry are separate records, joined by “and”; a condition that tells them apart may be missing. Identical values can stand only once.
Tests used:
male BALB/C mice = experiment: Acute toxicity in mice, single oral intragastric administration; assay type: in vivo; settings: observed 7 days
Description: (§1) Experiments on the Acute Toxicity of the Compounds
(§2) The acute toxicities of Compounds 4, 16 and 25 were in vivo evaluated preliminarily in mice. Animal: male BALB/C mice, 18-20 g/mouse, 3 mice for blank control group, and 5 mice for each of test groups.
(§3) Method: Suspensions of Compound 25: 49 mg/ml (depended on the total amount of the compound provided); Compounds 4 and 16: 50 mg/ml were prepared in 0.5% CMC to separately. Each mouse of the 3 groups was subjected to oral intragastric administration of 0.2 ml of drug, and the doses were separately as follows: Compound 25: 490 mg/kg; and Compounds 4 and 16: 500 mg/kg. The blank control was administered with water. The consciousness, behavior and death of mice were observed every day after administration until 7 days of administration, and the survived mice were dissected after 7 days to observe pathological changes of tissues.

[1] = as above; assay type: in vivo; settings: male, BALB/C, mouse, in vivo, single oral intragastric administration, preliminary
Description: as §1, §2, §3

[2] = test system: Standard Strain H37Rv of mycobacterium tuberculosis; experiment: MIC against standard strain H37Rv by Microplate Alamar Blue Assay (MABA); assay type: cell-based; settings: M. tuberculosis H37Rv, 7H9 medium, 37° C.

COc1cc2ccc(Br)cc2cc1C(c1ccc(Cl)cc1)C(O)(CCN(C)C)c1cccc2ccccc12 (single isomer, unassigned) [Compound 4, 1-(4-chlorophenyl)-2-(1-naphthyl)-1-[2-(7-bromo-3-methoxy)naphthyl]-4-(N,N-dimethylamino)-butan-2-ol]
death or abnormality of the animals (male BALB/C mice; single dose of 500 mg/kg): no death nor abnormality
LD50 at 7 days [1]: ≥ 500 mg/kg
MIC [2]: 0.244 µg/mL (≈ 0.414 µM)

COc1cc2ccccc2cc1C(c1ccc(Cl)cc1)C(O)(CCN(C)C)c1ccc(F)cc1F (stereo not drawn) [Compound 14, 1-(4-chlorophenyl)-2-(2,4-difluorophenyl)-1-[2-(3-methoxy)naphthyl]-4-(N,N-dimethylamino)-butan-2-ol]
melting point: 190.6 to 192.4 °C
MIC [2]: 0.754 µg/mL (≈ 1.52 µM)

COc1cc2ccc(Br)cc2cc1C(c1ccc(Cl)cc1)C(O)(CCN(C)C)c1cccc(Br)c1 (stereo not drawn) [Compound 16, 1-(4-chlorophenyl)-2-(3-bromophenyl)-1-[2-(7-bromo-3-methoxy)naphthyl]-4-(N,N-dimethylamino)-butan-2-ol]
death or abnormality of the animals (male BALB/C mice; single dose of 500 mg/kg): no death nor abnormality
LD50 at 7 days [1]: ≥ 500 mg/kg
MIC [2]: 0.184 µg/mL (≈ 0.298 µM)

COc1cc2ccc(Br)cc2cc1C(c1ccccc1)C(O)(CCN(C)C)c1cccc2ccccc12 (stereo not drawn) [Compound 25, 1-phenyl-2-(1-naphthyl)-1-[2-(7-bromo-3-methoxy)naphthyl]-4-(N,N-dimethylamino)-butan-2-ol]
death or abnormality of the animals (male BALB/C mice; single dose of 490 mg/kg): no death nor abnormality
LD50 at 7 days [1]: ≥ 490 mg/kg
MIC [2]: 0.594 µg/mL (≈ 1.07 µM)

COc1cc2ccc(Br)cc2cc1C(c1ccc(C)cc1)C(O)(CCN(C)C)c1cccc2ccccc12 (stereo not drawn) [Compound 30, 1-(4-methylphenyl)-2-(1-naphthyl)-1-[2-(7-bromo-3-methoxy)naphthyl]-4-(N,N-dimethylamino)-butan-2-ol]
melting point: 189.5 to 190.8 °C
MIC [2]: 1.000 µg/mL (≈ 1.76 µM)

CN(C)CCC(O)(c1cccc2ccccc12)C(c1ccccc1)c1cc2cc(Br)ccc2c(Br)c1O (stereo not drawn) [Compound 33, 1,6-dibromo-3-[1-phenyl 2-(1-naphthyl)-2-hydroxy-4-(N,N-dimethylamino)]butyl-2-naphthol]
MIC [2]: 1.000 µg/mL (≈ 1.61 µM)

CN(C)CCC(O)(c1cccc2ccccc12)C(c1ccccc1)c1cc2cc(Br)ccc2c(Br)c1O (stereo not drawn) [Compound 34, 1,6-dibromo-3-[1-phenyl 2-(1-naphthyl)-2-hydroxy-4-(N,N-dimethylamino)]butyl-2-naphthol]
MIC [2]: 4.000 µg/mL (≈ 6.46 µM)

COc1cc2ccc(Br)cc2cc1C(c1cccc(Cl)c1)C(O)(CCN(C)C)c1cccc2ccccc12 (stereo not drawn) [Compound 35, 1-(3-chlorophenyl)-2-(1-naphthyl)-1-[2-(7-bromo-3-methoxy)naphthyl]-4-(N,N-dimethylamino)-butan-2-ol]
MIC [2]: 0.114 µg/mL (≈ 0.194 µM)

COc1cc2ccc(Br)cc2cc1C(c1cccc(Cl)c1)C(O)(CCN(C)C)c1cccc2ccccc12 (stereo not drawn) [Compound 36, 1-(3-chlorophenyl)-2-(1-naphthyl)-1-[2-(7-bromo-3-methoxy)naphthyl]-4-(N,N-dimethylamino)-butan-2-ol]
MIC [2]: 3.773 µg/mL (≈ 6.41 µM)

COc1cc2ccc(Br)cc2cc1C(c1cccc(C)c1)C(O)(CCN(C)C)c1cccc2ccccc12 (stereo not drawn) [Compound 37, 1-(3-methylphenyl)-2-(1-naphthyl)-1-[2-(7-bromo-3-methoxy)naphthyl]-4-(N,N-dimethylamino)-butan-2-ol]
MIC [2]: 0.180 µg/mL and 0.258 µg/mL

Reference: patent US8674136B2, “Aromatic butan-2-ol compounds and preparation and uses thereof” (Institute of Pharmacology and Toxicology Academy of …, priority 2010, dated 2014)
